We go through two compounds from patent US5981517A, “Androstene derivatives” (priority 1997, dated 1999).

Series [1] deals with right ear of each mouse (croton oil challenge). As to the kind of experiment: Ear edema test (croton oil, mice). The class given is in vivo. To be noted: 6 h after croton oil challenge. As to the method:
In treatment groups of mice, selected amounts of the test compound were dissolved in acetone containing 5% croton oil; then, 50 microliters of the solution were applied to the inner surface of the right ear of each mouse. A control group of mice was identically treated with vehicle only, i.e., 5% croton oil in acetone. Six hours after croton oil challenge, the thickness of each ear was measured.

In series [2] the test system is skin. As to the kind of experiment: Skin weight test, 10 days of topical treatment in the rat. The series is classed as in vivo, Male Sprague-Dawley rats. To be noted: rat, in vivo. The method, then: Male Sprague-Dawley rats, weighing about 210 g, were lightly anesthetized with ether, shaved and marked in three areas on each flank with intradermally injected blue ink. […] Treated control animals received daily topical administration of the vehicle (DMF) alone. Solvent and test compound solutions (10 μL) were applied once daily for 10 consecutive days, with […] necessary. On the eleventh day, the animals were sacrificed, their skins were removed and 16 mm diameter plugs were punched out from each area. The plugs were scraped carefully to remove subcutaneous fat and muscle, then they were blotted on filter paper and weighed. Skin atrophy is a known side effect associated with topically applied anti-inflammatory steroids.

Series [3] has as its system granulation tissue (granuloma). The class given is in vivo, rat. The method, then:
The test compound was dissolved in acetone and aliquots of varying concentrations were injected into cotton pellets. The pellets were dried and then one pellet was implanted beneath the skin of each test rat. Six days later, the animals were sacrificed and the granulation tissue (granuloma) which formed in and around the implanted pellet was removed, dried and weighed. In addition, the thymi and adrenals were removed and weighed. The ability of a compound to inhibit granuloma formation in this test is a direct indication of local anti-inflammatory activity; thus, the lower the weight of granulation tissue, the better the anti-inflammatory activity.

Series [4] relates to thymi. More on the design: species or system male Sprague-Dawley rats. The settings on record: rat, in vivo, sc. As to the method: Several further studies were undertaken to determine the effects of a selected compound of the invention and prior art steroids on thymi weights in rats when the drugs were systemically administered. In each of these studies, male Sprague-Dawley rats were used. The test compounds were suspended in 0.5% CMC (carboxymethylcellulose) and injected subcutaneously once daily for three days. On the fifth day (48 hours following the last treatment), the animals were sacrificed and the thymi weights were recorded. Body weight gains were measured 24 hours after the last treatment. From the test results, the TED40 's (thymolytic effective doses, that is, doses required to achieve 40% inhibition of thymi weight) and relative potencies of a representative compound of the invention and reference steroids were calculated. […] It is evident that the higher the inhibition of thymus activity at a given dose, the more toxic the compound is.

The subject of series [5] is granuloma / thymolysis. As to the kind of experiment: Comparison of local effect and systemic side-effects (therapeutic index). The series is classed as in vivo, rat. To be noted: granuloma relative potency / thymolysis relative potency. The method, then: The test compound was dissolved in acetone and aliquots of varying concentrations were injected into cotton pellets. The pellets were dried and then one pellet was implanted beneath the skin of each test rat. Six days later, the animals were sacrificed and the granulation tissue (granuloma) which formed in and around the implanted pellet was removed, dried and weighed. In addition, the thymi and adrenals were removed and weighed.
Several further studies were undertaken to determine the effects of a selected compound of the invention and prior art steroids on thymi weights in rats when the drugs were systemically administered. In each of these studies, male Sprague-Dawley rats were used. The test compounds were suspended in 0.5% CMC (carboxymethylcellulose) and injected subcutaneously once daily for three days. On the fifth day (48 hours following the last treatment), the animals were sacrificed and the thymi weights were recorded. Body weight gains were measured 24 hours after the last treatment.
The ED50 's calculated for the local cotton pellet granuloma assay and the TED40 's calculated on the basis of thymus inhibition testing as described above were used to arrive at relative potency and a therapeutic index for a representative species of the invention as compared to prior art steroids.

Structures are written as SMILES.

On to `COC(=O)[C@@]1(OC(=O)C(Cl)Cl)[C@H](C)C[C@H]2[C@@H]3CCC4=CC(=O)C=C[C@]4(C)[C@@]3(F)[C@@H](O)C[C@@]21C` [Compound I, methyl 17α-dichloroacetoxy-9α-fluoro-11β-hydroxy-16α-methylandrosta-1,4-dien-3-one-17β-carboxylate], for which the inhibition of swelling in series [1] (10 μg/mL) stood at 37.4%; in series [1] (100 μg/mL), 92.1%. In addition, in series [2], the “Wet skin weight, Treated, Decrease” value turned out to be 11.6%. Moreover, the “Wet skin weight, Untreated, Decrease” value in series [2] came out at 11.2%. The “local anti-inflammatory activity (inhibition of granuloma formation)” value in series [3] (cotton pellet, 6 days) is given as “significant local anti-inflammatory activity”. The systemic effect entry in series [3] (rat, in vivo) was “relatively much lower systemic effect”. Besides, the “Thymolysis, Relative Potency at ED40 Level (b)” value in series [4] is given as 156. In addition, the “Therapeutic Index (a/b)” value in series [5] was determined as 7.10.
As to `CCCCC(=O)O[C@]1(C(=O)CO)[C@@H](C)C[C@H]2[C@@H]3CCC4=CC(=O)C=C[C@]4(C)[C@@]3(F)[C@@H](O)C[C@@]21C` [Betamethasone 17-valerate, reference compound], the “Thymolysis, Relative Potency at ED40 Level (b)” value in series [4] turned out to be 100. Moreover, the “Therapeutic Index (a/b)” value in series [5] is reported as 1.0.
